{
  "source": "patent US20250130239A1",
  "about": "“PROTEIN DEGRADER” (University of Dundee, priority 2021, published 2025)",
  "key": {"BromoTag-Brd2 [1]": {"molecular_target": "T1, BromoTag-Brd2 (Homo sapiens, UniProt O60885+P40337, L387A)", "T1 construct": "comprising residues 368-440 of human Brd4; Brd2 (endogenous protein, fusion partner in the same polypeptide); eGFP-P2A (upstream marker in the knock-in cassette) (N, cleaved yes); expressed in transfected cells; host or cells: HEK293, heterozygous CRISPR knock-in at the endogenous BRD2 locus", "assay": "Dose-response degradation assay (western blot, 6 h) in heterozygous BromoTag-Brd2 HEK293 cells", "format": "cell-based", "description": "Dose-response Degradation Assays. All dose-response degradation assays were performed on the genotype verified heterozygous BromoTag-Brd2 HEK293 cell line. Heterozygous BromoTag-Brd2 HEK293 cells were plated at a density of 5×10^5 cells per well of a six healthy plate a day before initiation of the titration experiment. PROTAC compounds were dissolved in DMSO at a concentration of 10 mM, from these stock concentrations, PROTAC compounds were diluted to appropriate concentrations using DMSO in the range of 10 μM-1 nM. […] Control compounds such as MZ1, cis-MZ1 were similarly dissolved in DMSO to the appropriate concentration. […] Cells were washed twice with PBS before being harvested.\nWestern Blotting. […] The membranes were blocked for 1 h prior to incubation with the primary antibodies using 5% Milk TBST. […] Following overnight incubation with the primary antibodies at 4° C., the membranes were incubated with secondary antibodies (Anti-rabbit, Abcam AB216773, 1:5000 or anti-mouse, Abcam AB216774, 1:5000) and hFAB™ Rhodamine Anti-Tubulin Antibody (Biorad, 12004165, 1:10000) for one h and then imaged with a Bio-Rad imager (LI-COR Biosciences). All western blots were analysed for band intensities using Image Lab from Bio-Rad (LI-COR, Biosciences). The data extracted from these blots were then plotted and analysed using Prism (v. 8.2.0, GraphPad)."}, "BromoTag-Brd2 [2]": {"molecular_target": "T1, BromoTag-Brd2", "assay": "Time-course degradation assay in heterozygous BromoTag-Brd2 HEK293 cells", "format": "cell-based", "details": "500 nM", "description": "Time-course Degradation Assay. Time-course degradation assays using PROTACs AGB1, AGB2, and AGB3 were performed on the genotype verified heterozygous BromoTag-Brd2 HEK293 cell line. Heterozygous BromoTag-Brd2 HEK293 cells were plated at a density of 5×10^5 cells per well of a 6 healthy plate a day prior to initiation of the Timecourse assay. PROTAC's AGB1 & AGB2 were diluted in DMSO to a concentration of 1 mM prior to being further diluted 1:2000 in 2 mL of DMEM to a concentration of 500 nM per timepoint. PROTAC AGB3 was diluted in DMSO to a concentration of 2 mM prior to being further diluted 1:2000 in 2 mL of DMEM to a concentration of 1 μM per timepoint. Timepoint range was between 0-36 h. Treatment was applied in a staggered fashion to enable all timepoints to be harvested at the same time.\n(§1) Western Blotting. All cells were harvested on ice with RIPA lysis, and extraction buffer (ThermoFisher Scientific, 89901) supplemented with protease inhibitor cocktail (Merck, 11697498001) and Benzonase® Nuclease (Sigma, E1014) before being store at −20° C. prior to use. Total protein quantity was determined using the BCA protein assay (#23225, Pierce, Rockford, Illinois). Protein concentration was determined using the BCA assay (ThermoFisher Scientific, 23225). Samples were then prepared and loaded onto NuPAGE™ 4-12% Bis-Tris Midi gels (ThermoFisher Scientific, WG1403A), followed by the transfer of the proteins onto nitrocellulose membranes (EMD Millipore). The membranes were blocked for 1 h prior to incubation with the primary antibodies using 5% Milk TBST. Membranes were probed for Brd2 (Abcam, Ab139690, 1:1000), Brd3 (Abcam, Ab50818, 1:4000), Brd4 (Abcam, Ab128874, 1:1000) or our polyclonal Brd4^BD2 L387A antibody. […] All western blots were analysed for band intensities using Image Lab from Bio-Rad (LI-COR, Biosciences). The data extracted from these blots were then plotted and analysed using Prism (v. 8.2.0, GraphPad)."}, "HEK293 cells": {"test_system": "HEK293 cells", "assay": "CellTiter-Glo cell viability assay, HEK293", "format": "cell-based, human", "details": "up to 10 μM; 48 h"}, "BromoTag-Brd2 [3]": {"molecular_target": "T1, BromoTag-Brd2", "assay": "Recovery (washout) assay", "format": "cell-based", "description": "Recovery Assay. A recovery assay was performed using 200 nM AGB1 over a 72 h period. This was performed in the genotype verified heterozygous BromoTag-Brd2 HEK293 cell line. Heterozygous BromoTag-Brd2 HEK293 cells were plated at a density of 5×10^5 cells per well of a six-well plate a day before initiating the recovery assay. On the experiment day, cells were washed with PBS before fresh DMEM was applied to contain either DMSO or AGB1 200 nM. During treatment, cells were kept at 37° C., 5% CO2, and 95% humidity. After three hours, the recovery and vehicle control condition cells were rewashed with PBS before fresh DMEM was applied absent 200 nM AGB1 or DMSO. As for the positive control condition, they were left with 200 nM AGB1 for the remainder of the treatment time.\nas §1"}, "[4]": {"molecular_target": "T2, MCM4 (P33991), BromoTag N-term (Homo sapiens, UniProt O60885+P40337, L387A)", "T2 construct": "comprising residues 368-440 of human Brd4; MCM4 (endogenous protein, fusion partner in the same polypeptide); expressed in transfected cells", "assay": "Degradation of BromoTag'ed MCM4 by AGB1", "format": "cell-based", "source_text": "(§2) Degradation of a variety of target proteins. […] We performed CRISPR knock-in of the BromoTag, as described, into the endogenous loci of five additional proteins. […] The target proteins of Table 6 are all different, are all known to have different cellular roles and function, intracellular expression, and distinctive turnover rates within cells."}, "[5]": {"molecular_target": "T3, VPS34/PK3C3 (Q8NEB9), BromoTag N-term (Homo sapiens, UniProt O60885+P40337, L387A)", "T3 construct": "comprising residues 368-440 of human Brd4; VPS34/PK3C3 (endogenous protein, fusion partner in the same polypeptide); expressed in transfected cells", "T3 sequence (P40337 whole entry, other chains not shown, the tested form may be a part)": "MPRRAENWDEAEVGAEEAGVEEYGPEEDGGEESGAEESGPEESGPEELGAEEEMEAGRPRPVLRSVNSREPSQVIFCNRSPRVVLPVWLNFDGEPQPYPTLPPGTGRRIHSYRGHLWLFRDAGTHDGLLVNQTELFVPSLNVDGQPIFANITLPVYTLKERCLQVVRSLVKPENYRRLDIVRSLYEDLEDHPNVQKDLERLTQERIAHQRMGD", "assay": "Degradation of BromoTag'ed VPS34/PK3C3 by AGB1", "format": "cell-based", "source_text": "as §2"}, "[6]": {"test_system": "BromoTag-protein conjugates", "assay": "Degradation of a variety of BromoTag'ed target proteins (summary)", "format": "cell-based", "details": "treatment window of 100 nM-1 nM", "source_text": "as §2"}},
  "note": "Where “and” joins values, the source holds several entries; their conditions need not be identical. Identical values can stand only once.",
  "data": [
    {"smiles": "CC[C@@H](C(=O)OCCOCCOCCOCC(=O)N[C@H](C(=O)N1C[C@H](O)C[C@H]1C(=O)NCc1ccc(-c2scnc2C)cc1)C(C)(C)C)[C@@H]1N=C(c2ccc(Cl)cc2)c2c(sc(C)c2C)-n2c(C)nnc21", "note": "(single isomer, unassigned) [AGB1 (46)]", "values": [
      {"measurement": "DC50", "setting": "BromoTag-Brd2 [1]; 6 h, range over the two antibodies, listed as 46", "value": "13 to 15 nM and < 15 nM"},
      {"measurement": "pDC50", "setting": "BromoTag-Brd2 [1]; Ab: Brd4^BD2 L387A, single stereoisomers, 8-point 10 μM-1 nM, 6 h, mean (±S.E.) of two repeats", "value": "7.8 ± 0.2"},
      {"measurement": "pDC50", "setting": "BromoTag-Brd2 [1]; Ab: BromoTag-Brd2, single stereoisomers, 8-point 10 μM-1 nM, 6 h, mean (±S.E.) of two repeats", "value": "7.9 ± 0.1"},
      {"measurement": "pDC50", "setting": "BromoTag-Brd2 [1]; BromoTag'ed BRD2 (P25440), N-term tag, Table 6", "value": 7.8},
      {"measurement": "Dmax", "setting": "BromoTag-Brd2 [1]; HEK293, Ab: Brd4^BD2 L387A, single stereoisomers, 6 h", "value": 99, "unit": "%"},
      {"measurement": "time to completely degrade BromoTag-Brd2", "setting": "BromoTag-Brd2 [2]", "value": "≤ 6", "unit": "h"},
      {"measurement": "cytotoxicity", "setting": "HEK293 cells", "value": "lack of cytotoxicity"},
      {"measurement": "time after washout at which BromoTag-Brd2 protein levels recover", "setting": "BromoTag-Brd2 [3]; 200 nM for 3 h, then washout", "value": 24, "unit": "h"},
      {"measurement": "BromoTag-Brd2 level after 3 h treatment", "setting": "BromoTag-Brd2 [3]; 200 nM, 3 h", "value": "complete depletion"},
      {"measurement": "on-target degradation without washout", "setting": "BromoTag-Brd2 [3]; 200 nM, no washout", "value": "complete and durable on-target degradation for up to 72 h"},
      {"measurement": "Dmax", "setting": "[4]", "value": "> 99", "unit": "%"},
      {"measurement": "pDC50", "setting": "[4]; BromoTag'ed MCM4, N-term tag", "value": 8.1},
      {"measurement": "Dmax", "setting": "[5]", "value": "> 99", "unit": "%"},
      {"measurement": "pDC50", "setting": "[5]; BromoTag'ed VPS34/PK3C3, N-term tag", "value": 8.0},
      {"measurement": "loss of total target protein", "setting": "[6]", "value": "greater than 95%"}
    ]}
  ]
}
